24 compounds from PMC3071374, “High Throughput Screens Yield Small Molecule Inhibitors of Leishmania CRK3:CYC6 Cyclin-Dependent Kinase” (PLoS Neglected Tropical Diseases, 2011) can be followed below.

Where two headings read alike, the source gives them in different places.

Experiment [1] deals with CDK4:CYCD1 (Homo sapiens, UniProt P11802). The experiment can be described thus: Mammalian protein kinase assay, CDK4:CYCD1. It counts as biochemical. Conditions: Lexicon azapurine HTS hits. As to the method:
(§1) Leishmania CRK3:CYC6 protein kinase assays were performed in 96-well microtiter plates in a final volume of 25 µl. Each assay point contained 7.5 ng of co-expressed histidine-tagged CRK3:CYC6 protein kinase complex (hereafter referred to as CRK3:CYC6) diluted in enzyme dilution buffer (EDB) (20 mM Tris-HCl pH 7.2, 0.5 mg ml^−1 BSA, 2.5% glycerol and 0.006% Brij-35). Assays were performed using the assay development buffer (ADB) (20 mM MOPS, pH 7.0, 25 mM β-glycerophosphate, 5 mM EGTA, 1 mM NaVO3, 1 mM DTT and 15 mM MgCl2) supplemented with 100 µM ATP, 0.5 µCi of γ-^32P ATP per reaction and histone H1 as a substrate used at 0.4 mg ml^−1. Two and three-fold titrations were set up to determine the concentration of enzyme to be used per assay point (7.5 ng) and to determine the concentrations of selected inhibitors required for 50% inhibition of Leishmania CRK3:CYC6 protein kinase activity (IC50 values), respectively. For IC50 determinations, assay mixes contained DMSO to a final concentration of 2%. Mammalian protein kinase assays were carried out according to the assay protocols developed at Cyclacel. Assays were carried out for 30 minutes at 30°C before stopping the reaction by the addition of an equal volume (25 µl) of 75 mM orthophosphoric acid. Samples were spotted onto a p81 cellulose filterplate (Nunc) and a vacuum applied. Wells were washed 3×200 µl with 75 mM phosphoric acid and the bottom of the plate sealed. 50 µl of Microscint 40 (Perkin Elmer) was added per well before incorporation of radioactivity was determined on a Topcount microplate scintillation counter.

The target in experiment [2] is Leishmania CRK3:CYC6 (Leishmania major, UniProt O96526). It is filed as biochemical. As to the method:
as §1

Experiment [3] deals with WT amastigote L. major. The experiment can be described thus: Intra-macrophage L. major amastigote assay. It counts as cell-based. Conditions: for IC50 / activity against amastigotes (in words): infected peritoneal macrophages; for IC50: read-out: IC50 against WT amastigote L. major. As to the method: Macrophages were harvested from the peritoneum of Balb/C mice, centrifuged at 1000× g for 10 minutes at 4°C and resuspended in fresh RPMI 1640 media supplemented with 10% HIFCS and 1% (v/v) Gentamicin, as described previously. Macrophages were diluted to a cell density of 5×10^5 cells ml^-1 in RPMI supplemented with 10% HIFCS and 100 μl were added to each well of a 16-well Lab-tek cavity slide (50,000 mφ/well) and incubated at 37°C, 5% CO2 for subsequent experiments. […] Inhibitors were set up in a five-fold dilution series in RPMI 1640 medium supplemented with 10% […] of inhibitor were added to the wells in serial dilution and slides incubated for 72 hours at 37°C with 5% CO2. After 72 hours the medium was removed and replaced with fresh medium containing the same concentrations of inhibitors and incubated for a further 48 hours at 37°C with 5% CO2. At the end of the incubation period, the medium was removed, the slides were washed twice with fresh RPMI 1640 medium supplemented with 10% HIFCS then fixed with 100% methanol and stained with 10% Giemsa's stain for 10 minutes. The percentage of infected macrophages and number of amastigotes per macrophage were determined by light microscopy under oil immersion.

Experiment [4] concerns WT promastigote L. major. The experiment in a line: L. major promastigote growth inhibition assay (resazurin). The following applies: for IC50: 5 days at 25°C, read-out: IC50 against WT promastigote L. major; for inhibition of parasite growth in culture (in words): promastigotes and intra-macrophage amastigotes in culture. It is filed as cell-based. The method, then: L. major wild type promastigotes (Friedlin strain: WHO designation MHOM/JL/81/Friedlin) were grown at 25°C in HOMEM medium (Invitrogen cat no. 041-94699111) supplemented with 10% (v/v) heat inactivated foetal calf serum (HIFCS) and 1% (v/v) penicillin/streptomycin antibiotics.
CRK3 inhibitors were diluted into HOMEM medium supplemented with 10% HIFCS at twice the final screening concentration. Five-fold or ten-fold serial dilutions were carried out into HOMEM medium supplemented with 10% HIFCS. 100 µl of each drug concentration were added to a 96 well plate in duplicate. 100 µl of five-fold or ten-fold serial dilutions of 1 mM Pentamidine (Sigma) and an equivalent volume of 100% DMSO were included as positive and negative controls, in duplicate, respectively. L. major promastigote cells were diluted to a cell density of 2×10^6 cells ml^−1 in HOMEM media supplemented with 10% HIFCS and 100 µl added to all wells in 96 well plates. Plates were sealed with parafilm and incubated for 5 days at 25°C. After 5 days, 20 µl of filter sterile resazurin solution (12.5 mg resazurin salt in 100 ml PBS) (Sigma) was added to each of the wells and the plate incubated for a further 24 hours at 25°C. Fluorescence was measured using an Envision plate reader (Perkin Elmer) at 540 nm excitation wavelength and 590 nm emission wavelength.

The mark [5] stands for this setting: re-synthesised Lexicon azapurine hits.
Where [6] appears, read: Lexicon azapurine HTS hits, maximum concentration tested 10 µM.
Where [7] appears, read: synthesised azapurine derivatives.

Sequence of Leishmania CRK3:CYC6 (Q4Q4U0 entry or part of it): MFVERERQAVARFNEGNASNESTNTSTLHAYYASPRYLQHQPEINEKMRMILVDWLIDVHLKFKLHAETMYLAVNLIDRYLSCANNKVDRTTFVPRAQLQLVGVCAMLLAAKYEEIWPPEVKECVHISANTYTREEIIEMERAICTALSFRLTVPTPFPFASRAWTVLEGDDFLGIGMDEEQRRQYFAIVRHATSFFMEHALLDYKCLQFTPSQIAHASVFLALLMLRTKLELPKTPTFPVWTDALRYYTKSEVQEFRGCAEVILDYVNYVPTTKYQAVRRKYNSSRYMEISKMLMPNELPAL
Sequence of Leishmania CRK3:CYC6 (O96526 entry or part of it): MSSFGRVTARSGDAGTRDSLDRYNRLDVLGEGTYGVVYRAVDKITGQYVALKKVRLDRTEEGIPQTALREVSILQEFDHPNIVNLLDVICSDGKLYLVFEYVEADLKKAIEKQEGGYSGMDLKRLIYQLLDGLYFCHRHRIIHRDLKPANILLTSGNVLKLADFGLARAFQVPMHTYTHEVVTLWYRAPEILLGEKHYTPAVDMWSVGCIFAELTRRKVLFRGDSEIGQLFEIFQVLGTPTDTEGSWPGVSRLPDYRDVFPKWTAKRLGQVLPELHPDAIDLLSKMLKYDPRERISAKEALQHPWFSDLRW
Sequence of CDK4:CYCD1 (P11802 whole entry): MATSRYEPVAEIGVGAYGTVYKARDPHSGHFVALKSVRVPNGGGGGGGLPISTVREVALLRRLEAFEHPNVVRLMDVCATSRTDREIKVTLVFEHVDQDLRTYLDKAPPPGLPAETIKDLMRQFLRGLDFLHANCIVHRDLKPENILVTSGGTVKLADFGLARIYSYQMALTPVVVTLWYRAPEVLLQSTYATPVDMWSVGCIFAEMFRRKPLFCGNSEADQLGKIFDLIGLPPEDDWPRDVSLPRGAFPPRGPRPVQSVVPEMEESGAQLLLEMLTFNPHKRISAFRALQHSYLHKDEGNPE
Sequence of CDK4:CYCD1 (P24385 whole entry partner): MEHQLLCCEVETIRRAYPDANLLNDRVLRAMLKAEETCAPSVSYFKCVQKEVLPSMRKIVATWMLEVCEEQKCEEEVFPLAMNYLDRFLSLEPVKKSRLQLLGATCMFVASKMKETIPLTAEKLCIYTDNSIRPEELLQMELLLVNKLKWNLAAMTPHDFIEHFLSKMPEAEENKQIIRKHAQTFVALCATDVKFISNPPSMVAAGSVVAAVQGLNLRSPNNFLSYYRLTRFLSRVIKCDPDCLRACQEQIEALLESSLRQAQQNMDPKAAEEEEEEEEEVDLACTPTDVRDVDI

A word on the IC50: it is the concentration that gives 50% inhibition. As for `COc1ccc(-n2nnc3c(NCC(C)O)nc(CC4CCCCC4)nc32)cc1` (stereo not drawn) [Compound 3], the IC50 was 21.9 µM in experiment [1]; 4.4 µM in experiment [2] (Lexicon azapurine HTS hits); 24.2 µM in experiment [2] (setting [5]); greater than 50 µM in experiment [3] (Lexicon azapurine HTS hits); greater than 10 µM in experiment [4] (setting [6]).
Regarding `COc1ccc(-n2nnc3c(NC(Cc4ccccc4)Cn4nc(C)cc4C)nc(CC4CCCCC4)nc32)cc1` (stereo not drawn) [Compound 10], the IC50 in experiment [1] was determined as 7.3 µM; in experiment [2] (Lexicon azapurine HTS hits) it was 10.1 µM.
Take `COc1ccc(-n2nnc3c(N4CCCC(O)C4)nc(CC4CCCCC4)nc32)cc1` (racemic) [Compound 5]: the IC50 in experiment [1] is 9.7 µM; in experiment [2] (Lexicon azapurine HTS hits), 5.3 µM; in experiment [2] (setting [5]), 4.2 µM; in experiment [3] (Lexicon azapurine HTS hits), greater than 50 µM; in experiment [4] (setting [6]) it was 8.6 µM. The “activity towards the amastigote life cycle stage (in words)” value in experiment [3] is “no activity”.
Regarding `COc1ccc(-n2nnc3c(NCCN4CCOCC4)nc(Cc4ccccc4)nc32)cc1` [Compound 30], the IC50 in experiment [2] (setting [7]) was greater than 100 µM. Moreover, the “activity against amastigotes (in words)” value in experiment [3] (setting [7]) is recorded as “Activity observed at 10 μM”. Also, in experiment [4], the “activity towards promastigote L. major (in words)” value was “showed a range of activity” and the “inhibition of parasite growth in culture (in words)” value (from here on “inhibition of parasite growth”) is given as “inhibited parasite growth in culture”. Besides, the IC50 in experiment [4] (setting [7]) came to 3.8 µM.
As for `COc1ccc(-n2nnc3c(N4CC(N5CCN(c6ccccn6)CC5)C4)nc(CC4CCCCC4)nc32)cc1` [Compound 11], the IC50 in experiment [1] was 6.7 µM; in experiment [2] (Lexicon azapurine HTS hits) it was 10.3 µM.
As for `COc1ccc(-n2nnc3c(N4CCOCC4)nc(CC4CCCCC4)nc32)cc1` [Compound 27], the IC50 is 30.3 µM in experiment [2] (setting [7]), 15 to 30 µM in experiment [3] (setting [7]) and 28.7 µM in experiment [4] (setting [7]). The “activity towards promastigote L. major (in words)” value in experiment [4] was “showed a range of activity”. In addition, the “inhibition of parasite growth” value in experiment [4] is listed as “inhibited parasite growth in culture”.
The corresponding values for `COc1ccc(Cn2nnc3c(NCc4ccccn4)nc(CC4CCCCC4)nc32)cc1` [Compound 17] are 39.1 µM, 5 to 15 µM, 7.4 µM, “showed a range of activity” and “inhibited parasite growth in culture”.
For `CCC(CC)Nc1nc(CC2CCCCC2)nc2c1nnn2-c1ccc(OC)cc1` [Compound 8], the results for the IC50 in experiment [1] and in experiment [2] (Lexicon azapurine HTS hits) were 26.9 µM and 8.1 µM, respectively.
Take `COc1ccc(-n2nnc3c(N4CCCC(CO)C4)nc(CC4CCCCC4)nc32)cc1` (stereo not drawn) [Compound 6]: the IC50 in experiment [1] was 9.2 µM; in experiment [2] (Lexicon azapurine HTS hits), 6.9 µM; in experiment [2] (setting [5]) it was 4.4 µM; in experiment [3] (Lexicon azapurine HTS hits), greater than 50 µM; in experiment [4] (setting [6]) it was greater than 10 µM.
In the case of `COc1ccc(-n2nnc3c(NC(C)C)nc(CC4CCCCC4)nc32)cc1` [Compound 9], the IC50 worked out at 19.8 µM in experiment [1], 8.8 µM in experiment [2] (Lexicon azapurine HTS hits) and 37.9 µM in experiment [2] (setting [5]).
As to `COc1ccc(-n2nnc3c(N(C)C(CN4CCCCC4)c4ccccc4)nc(CC4CCCCC4)nc32)cc1` (stereo not drawn) [Compound 7], the figures for the IC50 in experiment [1] and in experiment [2] (Lexicon azapurine HTS hits) were 19.5 µM and 7.8 µM, respectively.
Consider `COc1ccc(-n2nnc3c(N(C)CCN(C)C4c5ccccc5CC4O)nc(CC4CCCCC4)nc32)cc1` (stereo not drawn) [Compound 1], for which the IC50 in experiment [1] was 12.5 µM; in experiment [2] (Lexicon azapurine HTS hits), 2.6 µM; in experiment [3] (Lexicon azapurine HTS hits) it was greater than 50 µM; in experiment [4] (setting [6]) it was greater than 10 µM.
As for `COc1ccc(-n2nnc3c(O)nc(Cc4ccc(Br)cc4)nc32)cc1` [Compound 26], in experiment [2] (setting [7]), the IC50 is greater than 50 µM.
As for `COc1ccc(Cn2nnc3c(N4CCCC(O)C4)nc(CC4CCCCC4)nc32)cc1` (racemic) [Compound 19], the IC50 in experiment [2] (setting [7]) was greater than 50 µM; in experiment [4] (setting [7]), 5 to 50 µM. The “activity towards promastigote L. major (in words)” value in experiment [4] is on record as “showed a range of activity”.
Turning to `COc1ccc(-n2nnc3c(NC(CO)CC(C)C)nc(CC4CCCCC4)nc32)cc1` (stereo not drawn) [Compound 12], the IC50 in experiment [1] is 4.6 µM; in experiment [2] (Lexicon azapurine HTS hits) it was 10.7 µM.
As to `COc1ccc(-n2nnc3c(N4CCCC(CO)C4)nc(Cc4ccccc4)nc32)cc1` (stereo not drawn) [Compound 31], the values for the IC50 in experiment [2] (setting [7]) and in experiment [4] (setting [7]) were greater than 20 µM and 40 µM, respectively. Moreover, the “activity against amastigotes (in words)” value in experiment [3] (setting [7]) is “Activity observed at 25 μM”. Besides, the “activity towards promastigote L. major (in words)” value in experiment [4] is listed as “showed a range of activity”.
For the compound `COc1ccc(Cn2nnc3c(N4CCOCC4)nc(CC4CCCCC4)nc32)cc1` [Compound 20], the “inhibition of CRK3/CYC6 in vitro (in words)” value (shortened to “inhibition of CRK3/CYC6”) in experiment [2] is reported as “did not inhibit”.
In the case of `ONc1nc(CC2CCCCC2)nc2c1nnn2Cc1ccc(F)cc1` [Compound 35], the IC50 in experiment [2] (setting [7]), in experiment [3] (setting [7]) and in experiment [4] (setting [7]) was greater than 50 µM each time.
Consider `COc1ccc(-n2nnc3c(N(C)C4COCC4N(C)C)nc(CC4CCCCC4)nc32)cc1` (stereo not drawn) [Compound 4], for which the IC50 in experiment [1] was 10.3 µM; in experiment [2] (Lexicon azapurine HTS hits) it was 4.4 µM; in experiment [3] (Lexicon azapurine HTS hits), greater than 50 µM; in experiment [4] (setting [6]), greater than 10 µM.
With `COc1ccc(-n2nnc3c(NCC(C)O)nc(Cc4ccccc4)nc32)cc1` (stereo not drawn) [Compound 32], the 50% inhibitory concentration (IC50) in experiment [2] (setting [7]) is greater than 100 µM; in experiment [3] (setting [7]), greater than 25 µM; in experiment [4] (setting [7]), greater than 50 µM.
Turning to `CCCN(c1nc(CC2CCCCC2)nc2c1nnn2-c1ccc(OC)cc1)C1CCCC1N(C)C` (stereo not drawn) [Compound 2], the IC50 was 5.6 µM in experiment [1], 3.4 µM in experiment [2] (Lexicon azapurine HTS hits), 38.4 µM in experiment [3] (Lexicon azapurine HTS hits) and greater than 10 µM in experiment [4] (setting [6]). For the same compound, in experiment [4], the “activity towards promastigote L. major (in words)” value is recorded as “did not have activity”.
Consider `COc1ccc(-n2nnc3c(NCCN4CCOCC4)nc(CC4CCCCC4)nc32)cc1` [Compound 28], for which the “inhibition of CRK3/CYC6” value in experiment [2] is reported as “did not inhibit”. Also, the figures for the IC50 in experiment [2] (setting [7]), in experiment [3] (setting [7]) and in experiment [4] (setting [7]) were greater than 50 µM, 5 to 15 µM and 8.3 µM, respectively. For the same compound, the “activity towards promastigote L. major (in words)” value in experiment [4] is listed as “showed a range of activity”. For the same compound, in experiment [4], the “inhibition of parasite growth” value is on record as “inhibited parasite growth in culture”.
Regarding `OC1CCCN(c2nc(CC3CCCCC3)nc3c2nnn3Cc2ccc(F)cc2)C1` (racemic) [Compound 33], the IC50 is 47.6 µM in experiment [2] (setting [7]), greater than 50 µM in experiment [3] (setting [7]) and greater than 50 µM in experiment [4] (setting [7]).
Regarding `COc1ccc(-n2nnc3c(N4CCCC(O)C4)nc(Cc4ccccc4)nc32)cc1` (racemic) [Compound 29], the “inhibition of CRK3/CYC6” value in experiment [2] is “did not inhibit”. Also, the IC50 in experiment [2] (setting [7]) was greater than 100 µM. The “activity against amastigotes (in words)” value in experiment [3] (setting [7]) is on record as “Activity observed at 25 μM”. Also, in experiment [4], the “activity towards promastigote L. major (in words)” value was “showed a range of activity” and the “inhibition of parasite growth” value was “inhibited parasite growth in culture”. For the same compound, the IC50 in experiment [4] (setting [7]) is 38.7 µM.
